Measurements taken from paper PMC7311426, “An amphipathic peptide with antibiotic activity against multidrug-resistant Gram-negative bacteria” (Nature Communications, 2020).
≈ marks a conversion by molar mass, not a printed value.

System: A. baumannii clinical isolates
Assay: microbe, parasite or virus in culture
Description: The in vitro activity of AA139 and comparator antimicrobials was determined in two panels of clinical isolates of E. coli, K. pneumoniae, P. aeruginosa, and A. baumannii (Supplementary Table 3), and MIC90 presented. The US panel consisted of 331 clinical isolates from 2010 to 2012. It was tested by BMD in accordance with the CLSI guidelines (M07-A9, 2012)[39]. […] AA139 was diluted in 0.01% acetic acid/0.1% bovine serum albumin. Sterile polypropylene culture cluster round-bottom 96-well plates (Costar # 3879) were used for testing. The worldwide panel consisted of 445 clinical isolates from 2011 to 2013, geographically divided into Asia, Europe, North America, and Rest of World (Middle East, Latin America, Africa, and South Pacific) with each region representing ~25% of the isolates. It was tested by broth microdilution in accordance with the CLSI guidelines (M07-A9, 2012)[39]. […] The test media was CAMHB (Becton Dickinson). AA139 and polymyxin B were tested in media supplemented with 0.002% Tween 80 (Calbiochem). MIC90 values were calculated for all or subsets of the isolates. MIC correlation between AA139 and colistin was analyzed with data from the US panel.

[1] = US isolates 2010-2012, isolate CID 1919446, Rep 1
[2] = US isolates 2010-2012, isolate CID 1919446, Rep 2
[3] = US isolates 2010-2012, isolate CID 1919519, Rep 1
[4] = US isolates 2010-2012, isolate CID 1919519, Rep 2
[5] = US isolates 2010-2012, isolate CID 1919714, Rep 1
[6] = US isolates 2010-2012, isolate CID 1919714, Rep 2
[7] = US isolates 2010-2012, isolate CID 1919942, Rep 1
[8] = US isolates 2010-2012, isolate CID 1919942, Rep 2
[9] = US isolates 2010-2012, isolate CID 1930670, Rep 1
[10] = US isolates 2010-2012, isolate CID 1930670, Rep 2
[11] = US isolates 2010-2012, isolate CID 1930676, Rep 1
[12] = US isolates 2010-2012, isolate CID 1930676, Rep 2
[13] = US isolates 2010-2012, isolate CID 2727597, Rep 1
[14] = US isolates 2010-2012, isolate CID 2727597, Rep 2
[15] = US isolates 2010-2012, isolate CID 2727598, Rep 1
[16] = US isolates 2010-2012, isolate CID 2727598, Rep 2
[17] = US isolates 2010-2012, isolate CID 2727898, Rep 1
[18] = US isolates 2010-2012, isolate CID 2727898, Rep 2
[19] = US isolates 2010-2012, isolate CID 2728115, Rep 1
[20] = US isolates 2010-2012, isolate CID 2728115, Rep 2
[21] = US isolates 2010-2012, isolate CID 2728119, Rep 1
[22] = US isolates 2010-2012, isolate CID 2728119, Rep 2
[23] = US isolates 2010-2012, isolate CID 2728650, Rep 1
[24] = US isolates 2010-2012, isolate CID 2728650, Rep 2
[25] = US isolates 2010-2012, isolate CID 2728663, Rep 1
[26] = US isolates 2010-2012, isolate CID 2728663, Rep 2
[27] = US isolates 2010-2012, isolate CID 2732481, Rep 1
[28] = US isolates 2010-2012, isolate CID 2732481, Rep 2
[29] = US isolates 2010-2012, isolate CID 2732486, Rep 1
[30] = US isolates 2010-2012, isolate CID 2732486, Rep 2
[31] = US isolates 2010-2012, isolate CID 2762740, Rep 1
[32] = US isolates 2010-2012, isolate CID 2762740, Rep 2
[33] = US isolates 2010-2012, isolate CID 2801947, Rep 1
[34] = US isolates 2010-2012, isolate CID 2801947, Rep 2
[35] = US isolates 2010-2012, isolate CID 2801949, Rep 1
[36] = US isolates 2010-2012, isolate CID 2801949, Rep 2
[37] = US isolates 2010-2012, isolate CID 2802027, Rep 1
[38] = US isolates 2010-2012, isolate CID 2802027, Rep 2
[39] = US isolates 2010-2012, isolate CID 2802028, Rep 1
[40] = US isolates 2010-2012, isolate CID 2802028, Rep 2
[41] = US isolates 2010-2012, isolate CID 2802029, Rep 1
[42] = US isolates 2010-2012, isolate CID 2802029, Rep 2
[43] = US isolates 2010-2012, isolate CID 2802031, Rep 1
[44] = US isolates 2010-2012, isolate CID 2802031, Rep 2
[45] = US isolates 2010-2012, isolate CID 2802109, Rep 2
[46] = US isolates 2010-2012, isolate CID 2802111, Rep 2
[47] = US isolates 2010-2012, isolate CID 2802187, Rep 1
[48] = US isolates 2010-2012, isolate CID 2802187, Rep 2

Molecule `CC(C)(O/N=C(\C(=O)N[C@@H]1C(=O)N2C(C(=O)[O-])=C(C[n+]3ccccc3)CS[C@H]12)c1csc(N)n1)C(=O)O` [Ceftaz] has an MIC [1] of 4 µg/mL (≈ 7.32 µM), an MIC [2] of 4 µg/mL (≈ 7.32 µM) and an MIC [3] of over 32 µg/mL. It also gave an MIC [4] of over 32 µg/mL, an MIC [5] of over 32 µg/mL and an MIC [6] of over 32 µg/mL. It also gave an MIC [7] of 8 µg/mL (≈ 14.6 µM), an MIC [8] of 4 µg/mL (≈ 7.32 µM) and an MIC [9] of over 32 µg/mL. For the same molecule, the MIC [10] was over 32 µg/mL, the MIC [11] was 4 µg/mL (≈ 7.32 µM) and the MIC [12] was 4 µg/mL (≈ 7.32 µM). The MIC [13] was over 32 µg/mL, the MIC [14] was over 32 µg/mL and the MIC [15] was over 32 µg/mL. The MIC [16] was over 32 µg/mL, the MIC [17] was 2 µg/mL (≈ 3.66 µM) and the MIC [18] was 4 µg/mL (≈ 7.32 µM). For the same molecule, the MIC [19] was over 32 µg/mL, the MIC [20] was over 32 µg/mL and the MIC [21] was 32 µg/mL (≈ 58.5 µM). The MIC [22] was 32 µg/mL (≈ 58.5 µM), the MIC [23] was over 32 µg/mL and the MIC [24] was over 32 µg/mL. The MIC [25] was over 32 µg/mL, the MIC [26] was over 32 µg/mL and the MIC [27] was 32 µg/mL (≈ 58.5 µM). It also gave an MIC [28] of 32 µg/mL (≈ 58.5 µM), an MIC [29] of over 32 µg/mL and an MIC [30] of 32 µg/mL (≈ 58.5 µM). For the same molecule, the MIC [31] was over 32 µg/mL, the MIC [32] was over 32 µg/mL and the MIC [33] was 2 µg/mL (≈ 3.66 µM). The MIC [34] was 2 µg/mL (≈ 3.66 µM), the MIC [35] was 8 µg/mL (≈ 14.6 µM) and the MIC [36] was 2 µg/mL (≈ 3.66 µM). It also gave an MIC [37] of over 32 µg/mL, an MIC [38] of over 32 µg/mL and an MIC [39] of over 32 µg/mL. For the same molecule, the MIC [40] was over 32 µg/mL, the MIC [41] was over 32 µg/mL and the MIC [42] was over 32 µg/mL. The MIC [43] was over 32 µg/mL, the MIC [44] was over 32 µg/mL and the MIC [45] was 32 µg/mL (≈ 58.5 µM). The MIC [46] was 8 µg/mL (≈ 14.6 µM), the MIC [47] was 4 µg/mL (≈ 7.32 µM) and the MIC [48] was 4 µg/mL (≈ 7.32 µM).
With `C[C@@H](O)[C@H]1C(=O)N2C(C(=O)O)=C(S[C@@H]3CN[C@H](C(=O)N(C)C)C3)[C@H](C)[C@H]12` [Mero] the MIC [1] was 1 µg/mL (≈ 2.61 µM), the MIC [2] was 2 µg/mL (≈ 5.22 µM) and the MIC [3] was over 16 µg/mL. The MIC [4] was over 16 µg/mL, the MIC [5] was over 16 µg/mL and the MIC [6] was over 16 µg/mL. The MIC [7] was 1 µg/mL (≈ 2.61 µM), the MIC [8] was 1 µg/mL (≈ 2.61 µM) and the MIC [9] was 16 µg/mL (≈ 41.7 µM). For the same molecule, the MIC [10] was over 16 µg/mL, the MIC [11] was 0.5 µg/mL (≈ 1.3 µM) and the MIC [12] was 0.5 µg/mL (≈ 1.3 µM). The MIC [13] was over 16 µg/mL, the MIC [14] was over 16 µg/mL and the MIC [15] was over 16 µg/mL. It also gave an MIC [16] of over 16 µg/mL, an MIC [17] of 0.5 µg/mL (≈ 1.3 µM) and an MIC [18] of 0.5 µg/mL (≈ 1.3 µM). The MIC [19] was over 16 µg/mL, the MIC [20] was over 16 µg/mL and the MIC [21] was over 16 µg/mL. It also gave an MIC [22] of over 16 µg/mL, an MIC [23] of 16 µg/mL (≈ 41.7 µM) and an MIC [24] of 16 µg/mL (≈ 41.7 µM). It also gave an MIC [25] of 1 µg/mL (≈ 2.61 µM), an MIC [26] of 2 µg/mL (≈ 5.22 µM) and an MIC [27] of over 16 µg/mL. For the same molecule, the MIC [28] was over 16 µg/mL, the MIC [29] was over 16 µg/mL and the MIC [30] was over 16 µg/mL. For the same molecule, the MIC [31] was over 16 µg/mL, the MIC [32] was over 16 µg/mL and the MIC [33] was 0.25 µg/mL (≈ 0.652 µM). The MIC [34] was 0.25 µg/mL (≈ 0.652 µM), the MIC [35] was 1 µg/mL (≈ 2.61 µM) and the MIC [36] was 0.25 µg/mL (≈ 0.652 µM). The MIC [37] was over 16 µg/mL, the MIC [38] was over 16 µg/mL and the MIC [39] was over 16 µg/mL. The MIC [40] was over 16 µg/mL, the MIC [41] was over 16 µg/mL and the MIC [42] was over 16 µg/mL. For the same molecule, the MIC [43] was 1 µg/mL (≈ 2.61 µM), the MIC [44] was 1 µg/mL (≈ 2.61 µM) and the MIC [45] was over 16 µg/mL. It also gave an MIC [46] of over 16 µg/mL, an MIC [47] of 1 µg/mL (≈ 2.61 µM) and an MIC [48] of 2 µg/mL (≈ 5.22 µM).
